Residues, ends and D or L forms follow the SMILES beside them. *: point of attachment. Cam = NC(=O)C*
Tests used:
[1] = tested on: set of Gram-negative and Gram-positive bacteria, including drug-resistant clinical isolates; type: cell-based; details: 12 strains; median MICs used; MIC > 16 µM taken as 32 µM
Procedure: To obtain a global assessment of the effect on antimicrobial activity, the geometric mean of the MIC (G-MIC) was calculated, and from this, the overall improvement or impoverishment with respect to arenicin-1. In general, inverting the symmetry or decreasing the charge had detrimental effects.
The overall activity against a set of tested bacterial strains was determined by way of the commonly used geometric mean of measured MIC values. […] At the same time, the geometric mean can still discriminate antimicrobial agents showing minor variations in activity; in other words, it has a better “resolution” than the median MIC (MIC50). Some mathematical basics for choosing the geometric mean for antimicrobial activity comparison are further discussed in the Supplementary Chapter S3.

[2] = tested on: Acinetobacter baumanii c.i.; type: cell-based, Acinetobacter baumannii; details: 18 h
Excerpt: (§1) E. coli ML35p, Listeria monocytogenes EGD, methicillin-resistant Staphylococcus aureus (MRSA) ATCC 33591 were kindly provided by Prof. Robert Lehrer (University of California, Los Angeles, CA, USA); E. coli ATCC 25922, E. coli M15, Pseudomonas aeruginosa ATCC 27853, S. aureus ATCC 25923 were provided by Dr. Elena Ermolenko (Institute of Experimental Medicine, St-Petersburg, Russia); drug-resistant clinical isolates were provided by Prof. Gennadiy Afinogenov (Saint Petersburg State University, Russia); S. aureus 710A has been described previously. The following clinical isolates of bacteria were used: P.s aeruginosa resistant to aztreonam, ceftazidime, cefotaxime (obtained from the urine of a patient with cystitis), Acinetobacter baumannii resistant to meropenem (from an infected wound); Staphylococcus intermedius (from an infected wound caused by a dog bite) resistant to ciprofloxacin, cefuroxime, clindamycin, erythromycin, rifampin, gentamicin, benzylpenicillin, oxacillin.
(§2) This assay was applied to determine the MIC, according to the guidelines of the Clinical and Laboratory Standards Institute, using Mueller Hinton (MH) Broth. We prepared 2x stocks of peptides and serially diluted them in sterile PBS instead of Mueller Hinton Broth, so that the treatment of the bacteria with the peptides was carried out in a medium containing 50% of MH and 50% of PBS, as described. The overnight cultures of each strain were transferred to fresh MH media and further incubated to obtain a mid-logarithmic-growth-phase culture of bacteria. The absorbance of each bacterial suspension was measured at 620 nm, and bacteria were then diluted to approximately 2 × 10^5 CFU/mL. Then, 50 µL of the suspensions were mixed with 50 µL of the peptide dilutions in the wells of a microtiter plate (pre-treated for 1 h at 37 °C with 0.2% bovine serum albumin (BSA) in water, sterilized by filtration, to diminish the non-specific binding of the peptides to the plastic surfaces).

[3] = tested on: Staphylococcus aureus 710A; type: cell-based; details: 18 h
Excerpt: as §1, §2

[4] = tested on: Pseudomonas aeruginosa ATCC 27853; type: cell-based; details: ATCC 27853, 18 h
Excerpt: as §1, §2

[5] = tested on: Listeria monocytogenes EGD; type: cell-based; details: 18 h
Excerpt: as §1, §2

Escherichia coli ML35p = type: cell-based; details: broth microdilution, 50% Mueller Hinton broth / 50% PBS, 18 h at 37 °C, median of 3–5 experiments in triplicates
Excerpt: as §1, §2

MRSA ATCC 33591 = type: cell-based, Staphylococcus aureus; details: ATCC 33591, 18 h
Excerpt: as §1, §2

S. aureus ATCC 25923 = type: cell-based, Staphylococcus aureus; details: ATCC 25923, 18 h
Excerpt: as §1, §2

S. aureus c.i. = type: cell-based, Staphylococcus aureus; details: 18 h
Excerpt: as §1, §2

[6] = tested on: Staphylococcus intermidius; type: cell-based, Staphylococcus intermedius; details: 18 h
Excerpt: as §1, §2

P. aeruginosa c.i. = type: cell-based, Pseudomonas aeruginosa; details: 18 h
Excerpt: as §1, §2

E. coli M15 = type: cell-based, Escherichia coli; details: M15, 18 h
Excerpt: as §1, §2

E. coli ATCC 25922 = type: cell-based, Escherichia coli; details: ATCC 25922, 18 h
Excerpt: as §1, §2

[7] = tested on: human erythroleukemia K-562 cells; type: cell-based; details: 24 h
Procedure: The standard MTT ((3-(4,5-Dimethylthiazol-2-yl)-2,5-diphenyltetrazolium bromide) test was used for the examination of the cytotoxic activity of AMPs towards human erithroleukemia cells K-562. The cells were purchased from Biolot (Saint Petersburg, Russia) and were grown in RPMI 1640 medium (Biolot, Saint Petersburg, Russia) supplemented with glutamine and 10% FCS. Before the experiment, the culturing medium was replaced with serum-free RPMI 1640. Serial dilutions of the peptides in RPMI were plated in sterile 96-well microplates, and the target cells were dispensed to the microplates (10^5 cells/well in RPMI 1640). The plates were incubated for 24 h at 37 °C under 5% CO2. Cell-free media and cells incubated without peptides served as controls. Four hours before the incubation ended, MTT in PBS (5 mg/mL) was added to each well. After the incubation was stopped by adding isopropanol/ 0.04 M HCl, the optical density was measured at 540 nm, subtracting the background absorbance at 690 nm. Toxicity was determined by nonlinear regression analysis of the corresponding dose–response curves using the Sigma Plot 11 program to calculate the IC50 values (the concentration of the test substance that reduced the OD540 capacity by 50%).

## CC(C)C[C@@H]1NC(=O)[C@H](C(C)C)NC(=O)CNC(=O)[C@H](CCCNC(=N)N)NC(=O)[C@H](C(C)C)NC(=O)[C@H](CCCNC(=N)N)NC(=O)[C@H](C(C)C)NC(=O)[C@H](Cc2ccc(O)cc2)NC(=O)[C@H](C)NC(=O)[C@H](Cc2ccc(O)cc2)NC(=O)[C@H](C(C)C)NC(=O)[C@@H](NC(=O)[C@H](Cc2c[nH]c3ccccc23)NC(=O)[C@@H](N)CCCNC(=N)N)CSSC[C@@H](C(=O)N[C@@H](Cc2c[nH]c3ccccc23)C(=O)O)NC(=O)[C@H](CCCNC(=N)N)NC(=O)[C@H](CCCNC(=N)N)NC(=O)[C@H](Cc2ccc(O)cc2)NC(=O)[C@H](CCCNC(=N)N)NC(=O)[C@H](C(C)C)NC1=O [AR, Arenicin-1] (HELM PEPTIDE1{R.W.C.V.Y.A.Y.V.R.V.R.G.V.L.V.R.Y.R.R.C.W}$PEPTIDE1,PEPTIDE1,3:R3-20:R3$$$V2.0)
[1]
  G-MIC (geometric mean of all determined MICs): 2.7 µM
[2]
  Minimal Inhibitory Concentrations (MIC): 4 µM
[3]
  Minimal Inhibitory Concentrations (MIC): 2 µM
[4]
  Minimal Inhibitory Concentrations (MIC): 2 µM
[5]
  Minimal Inhibitory Concentrations (MIC): 1 to 2 µM
Escherichia coli ML35p
  Minimal Inhibitory Concentrations (MIC): 1 to 2 µM
MRSA ATCC 33591
  Minimal Inhibitory Concentrations (MIC): 4 µM
S. aureus ATCC 25923
  Minimal Inhibitory Concentrations (MIC): 2 µM
S. aureus c.i.
  Minimal Inhibitory Concentrations (MIC): 4 µM
[6]
  Minimal Inhibitory Concentrations (MIC): 8 µM
P. aeruginosa c.i.
  Minimal Inhibitory Concentrations (MIC): 4 µM
E. coli M15
  Minimal Inhibitory Concentrations (MIC): 2 µM
E. coli ATCC 25922
  Minimal Inhibitory Concentrations (MIC): 2 µM
[7]
  IC50: 17.9 µM

## CC(C)C[C@@H]1NC(=O)[C@H](C(C)C)NC(=O)CNC(=O)[C@H](CCCNC(=N)N)NC(=O)[C@H](C(C)C)NC(=O)[C@H](CCCNC(=N)N)NC(=O)[C@H](C(C)C)NC(=O)[C@H](Cc2ccc(O)cc2)NC(=O)[C@H](C)NC(=O)[C@H](Cc2ccc(O)cc2)NC(=O)[C@H](C(C)C)NC(=O)[C@@H](NC(=O)[C@H](Cc2ccccc2)NC(=O)[C@@H](N)CCCNC(=N)N)CSSC[C@@H](C(=O)N[C@@H](Cc2ccccc2)C(=O)O)NC(=O)[C@H](CCCNC(=N)N)NC(=O)[C@H](CCCNC(=N)N)NC(=O)[C@H](Cc2ccc(O)cc2)NC(=O)[C@H](CCCNC(=N)N)NC(=O)[C@H](C(C)C)NC1=O [AR-F] (HELM PEPTIDE1{R.F.C.V.Y.A.Y.V.R.V.R.G.V.L.V.R.Y.R.R.C.F}$PEPTIDE1,PEPTIDE1,3:R3-20:R3$$$V2.0; N-terminus and C-terminus assumed)
[1]
  G-MIC (geometric mean of all determined MICs): 1.8 µM
[2]
  Minimal Inhibitory Concentrations (MIC): 2 µM
[3]
  Minimal Inhibitory Concentrations (MIC): 2 µM
[4]
  Minimal Inhibitory Concentrations (MIC): 1 µM
[5]
  Minimal Inhibitory Concentrations (MIC): 2 µM
Escherichia coli ML35p
  Minimal Inhibitory Concentrations (MIC): 1 µM
MRSA ATCC 33591
  Minimal Inhibitory Concentrations (MIC): 2 µM
S. aureus ATCC 25923
  Minimal Inhibitory Concentrations (MIC): 2 µM
S. aureus c.i.
  Minimal Inhibitory Concentrations (MIC): 4 µM
[6]
  Minimal Inhibitory Concentrations (MIC): 4 µM
P. aeruginosa c.i.
  Minimal Inhibitory Concentrations (MIC): 2 µM
E. coli M15
  Minimal Inhibitory Concentrations (MIC): 1 µM
E. coli ATCC 25922
  Minimal Inhibitory Concentrations (MIC): 1 µM
[7]
  IC50: 9.3 µM

## CC(C)C[C@@H]1NC(=O)[C@H](C(C)C)NC(=O)CNC(=O)[C@H](CCCNC(=N)N)NC(=O)[C@H](C(C)C)NC(=O)[C@H](CCCNC(=N)N)NC(=O)[C@H](C(C)C)NC(=O)[C@H](CCCNC(=N)N)NC(=O)[C@H](Cc2ccc(O)cc2)NC(=O)[C@H](CCCNC(=N)N)NC(=O)[C@H](CCCNC(=N)N)NC(=O)[C@@H](NC(=O)[C@H](Cc2c[nH]c3ccccc23)NC(=O)[C@@H](N)CCCNC(=N)N)CSSC[C@@H](C(=O)N[C@@H](Cc2c[nH]c3ccccc23)C(=O)O)NC(=O)[C@H](C(C)C)NC(=O)[C@H](Cc2ccc(O)cc2)NC(=O)[C@H](C)NC(=O)[C@H](Cc2ccc(O)cc2)NC(=O)[C@H](C(C)C)NC1=O [ARin-s] (HELM PEPTIDE1{R.W.C.R.R.Y.R.V.R.V.R.G.V.L.V.Y.A.Y.V.C.W}$PEPTIDE1,PEPTIDE1,3:R3-20:R3$$$V2.0; N-terminus assumed)
[1]
  G-MIC (geometric mean of all determined MICs): ≥12.8 µM
[2]
  Minimal Inhibitory Concentrations (MIC): 16 µM
[3]
  Minimal Inhibitory Concentrations (MIC): 16 µM
[4]
  Minimal Inhibitory Concentrations (MIC): 4 to 8 µM
[5]
  Minimal Inhibitory Concentrations (MIC): 2 µM
Escherichia coli ML35p
  Minimal Inhibitory Concentrations (MIC): 4 to 8 µM
MRSA ATCC 33591
  Minimal Inhibitory Concentrations (MIC): >16 µM
S. aureus ATCC 25923
  Minimal Inhibitory Concentrations (MIC): 16 µM
S. aureus c.i.
  Minimal Inhibitory Concentrations (MIC): >16 µM
[6]
  Minimal Inhibitory Concentrations (MIC): >16 µM
P. aeruginosa c.i.
  Minimal Inhibitory Concentrations (MIC): >16 µM
E. coli M15
  Minimal Inhibitory Concentrations (MIC): 8 µM
E. coli ATCC 25922
  Minimal Inhibitory Concentrations (MIC): 8 µM
[7]
  IC50: 37.7 µM

## CC(C)C[C@H](NC(=O)[C@@H](NC(=O)CNC(=O)[C@H](CCCNC(=N)N)NC(=O)[C@@H](NC(=O)[C@H](CCCNC(=N)N)NC(=O)[C@@H](NC(=O)[C@H](Cc1ccc(O)cc1)NC(=O)[C@H](C)NC(=O)[C@H](Cc1ccc(O)cc1)NC(=O)[C@@H](NC(=O)[C@H](CSCC(N)=O)NC(=O)[C@H](Cc1c[nH]c2ccccc12)NC(=O)[C@@H](N)CCCNC(=N)N)C(C)C)C(C)C)C(C)C)C(C)C)C(=O)N[C@H](C(=O)N[C@@H](CCCNC(=N)N)C(=O)N[C@@H](Cc1ccc(O)cc1)C(=O)N[C@@H](CCCNC(=N)N)C(=O)N[C@@H](CCCNC(=N)N)C(=O)N[C@@H](CSCC(N)=O)C(=O)N[C@@H](Cc1c[nH]c2ccccc12)C(=O)O)C(C)C [ARlin] (H-RWC(Cam)VYAYVRVRGVLVRYRRC(Cam)W-OH; N-terminus assumed)
[1]
  G-MIC (geometric mean of all determined MICs): 3.1 µM
[2]
  Minimal Inhibitory Concentrations (MIC): 4 µM
[3]
  Minimal Inhibitory Concentrations (MIC): 2 µM
[4]
  Minimal Inhibitory Concentrations (MIC): 2 µM
[5]
  Minimal Inhibitory Concentrations (MIC): 2 µM
Escherichia coli ML35p
  Minimal Inhibitory Concentrations (MIC): 1 to 2 µM
MRSA ATCC 33591
  Minimal Inhibitory Concentrations (MIC): 4 µM
S. aureus ATCC 25923
  Minimal Inhibitory Concentrations (MIC): 2 µM
S. aureus c.i.
  Minimal Inhibitory Concentrations (MIC): 8 to 16 µM
[6]
  Minimal Inhibitory Concentrations (MIC): 8 µM
P. aeruginosa c.i.
  Minimal Inhibitory Concentrations (MIC): 4 to 8 µM
E. coli M15
  Minimal Inhibitory Concentrations (MIC): 2 µM
E. coli ATCC 25922
  Minimal Inhibitory Concentrations (MIC): 2 µM
[7]
  IC50: > 40 µM

— article PMC6627698, “Redesigning Arenicin-1, an Antimicrobial Peptide from the Marine Polychaeta Arenicola marina, by Strand Rearrangement or Branching, Substitution of Specific Residues, and Backbone Linearization or Cyclization” (Marine Drugs, 2019)
